Literature values, collected in patent US10463642B2, “Methods of treating heart failure diseases using prodrugs of methyl hydrogen fumarate” (priority 2016, dated 2019).
Structures can show the parent of a compound that is named as a salt. Where two headings read alike, the source gives them in different places.

Columns and labels:
[1] = test system: central nervous system (CNS) inflammation; settings: rat EAE
[2] = test system: central nervous system (CNS) inflammation; settings: murine EAE
[3] = healthy subjects, steady state

| dose comparable to 240 mg DMF (Tecfidera) by comparing plasma levels of MHF [3] [mg] | SMILES | CNS inflammation in EAE [1] | CNS inflammation in EAE [2] |
| --- | --- | --- | --- |
| – | COC(=O)/C=C/C(=O)OC [DMF, Dimethyl fumarate] | inhibit | inhibit |
| 400 | CCN(CC)C(=O)COC(=O)/C=C/C(=O)OC [XP23829, (N,N-diethylcarbamoyl)methyl methyl (2E)but-2-ene-1,4-dioate] | – | – |
